Assay results: patent publication US10106572B1, “Supramolecular hacky sacks (SHS), method of synthesis and applications thereof” (University of Puerto Rico, priority 2014, dated 2018)
Several values for one entry are separate records, joined by “and”; a condition that tells them apart may be missing. Equal values may be shown once.

How the values were obtained:
[1] = Isothermal turbidity, transition pH; format: physicochemical; settings: for pKa: previously estimated, imidazole-containing ImAG
Procedure: (§1) Solutions of 0.650 mL of ImAGhD2OH were prepared at 5 mM with 4 M KI. In the case of ImAGpD2OH, the solutions prepared were 5 mM with 2 M KI. By following this procedure the following ratio is recommended between ImAGhD2OH (or ImAGpD2OH) with KI salt: 0-10 mM of ImAGhD2OH (or ImAGpD2OH) with 2-4 M KI. To dissolve the solids it was prepared a 0.1 M sodium acetate buffer for pH values of 5, 5.1, 5.2, 5.3, 5.4, 5.5, 5.6, 5.7, 5.8, 5.9. For pH 6-7, PBS from Fisher Scientific was used. The samples were put in the refrigerator (−10° C.) overnight (˜12 h) for equilibration. This sample concentration was used for turbidity experiments, DSC, and DLS experiments. The concentrations of the resulting assemblies of SGQ and f-SHS were calculated in terms of the molecular weights of monomeric 8ArG derivative ImAGpD2OH or ImAGhD2OH.
Before the imidazole modification of ImAGpD2OH and ImAGhD2OH, chalcone imidazole standard derivative (E)-3-(1-methyl-1H-imidazol-2-yl)-1-phenylprop-2-en-1-one (ImAG std) was synthesized by the same aldol condensation method to obtain an estimation of the pKa by measuring the absorbance at different pHs in a Varian UV-visible spectrometer, Model Cary Bio-100 as shown in FIG. 14. For the transition pH measurement, Isothermal measurements at 26.0° C. were performed in a SPECTRAmax 340 microplate reader at 650 nm. In these experiments 100 μL of sample was added in each well in triplicate for pH: 5, 5.1, 5.2, 5.3, 5.4, 5.5, 5.6, 5.7, 5.8, 5.9, 6.0, 6.5, 7.0 and 7.5. After the microplate wells were filled, the microplate was placed in the refrigerator (−10° C.) for equilibration. Afterwards, an 85% weighted curve fit was performed to the obtained graph. According to the standard experiments performed, the pKa of ImAG std is between 5.5 and 6.
Aside from the effect of the pH on the precise assembly of the nanoglobular SGQs, we observed, at 26° C., a pH-responsive phase transition where, at pH 5 the system is in solution, but changing it to pH 7 results in the solution becoming cloudy.

[2] = Turbidimetry studies, cloud-point temperature (Tcp); format: physicochemical
Procedure: as §1
This Tcp, which is measured by turbidimetry studies in UV-Vis, is the transition temperature to form the cluster of self-arranged supramolecular structures known as supramolecular hacky sacks (SHS). The turbidity measurements were performed at 650 nm using a Varian UV-visible spectrometer, Model Cary Bio-100. The heating rate was adjusted at 2.0° C./min using Cary temperature controller apparatus from Varian.

[3] = Differential scanning calorimetry (DSC) of SGQ assemblies; format: physicochemical; settings: for Tt: LCST transition
Procedure: The ΔGcal and ΔScal values shown in this table correspond to those calculated using the values of Tt, Tm, and ΔHcal from the instrument. All ΔG values were calculated at a temperature of 20° C.
Differential Scanning calorimetry (DSC) analyses were performed on a VP-DSC Micro-Calorimeter from MicroCal and Origin (v.7) was used for data processing. For the experiment, the buffer was first degasified and the experiment was carried out as a blank in both sample and reference cell. Then, the sample was degasified, and the blank buffer in the sample cell to be substituted with sample was removed. Afterwards, the experiment was performed with a temperature ramp of 0° C.-80° C. for 4 cycles.

[4] = pKa estimation by UV-VIS absorbance at different pHs; format: physicochemical; settings: UV absorbance at pH 5-7.5
Excerpt: During the synthesis of derivatives ImAGhD2OH and ImAGpD2OH, an ImAG std (with a molecular structure as shown in FIG. 8) was constructed to obtain information of the pKa of the derivative by UV-VIS measurements. This allowed to study the effect of the functionality added in the 8ArG derivative. Derivative (E)-3-(1-methyl-1H-imidazol-2-yl)-1-phenylprop-2-en-1-one (ImAG std), with a chemical formula C13H12N2O, offers an alternative method to determine the pKa without having to perform the entire synthetic sequence for the corresponding compounds ImAGhD2OH and ImAGpD2OH. In the case of ImAG standard, the same procedure as above was followed, but the obtained solid was washed with ether and hexane. ImAG std was characterized as shown in FIG. 9 and FIG. 10 by using ^1H NMR and ^13C NMR, respectively. Yellow solid, mp (125.2-126.3) ° C. […]
Before the imidazole modification of ImAGpD2OH and ImAGhD2OH, chalcone imidazole standard derivative (E)-3-(1-methyl-1H-imidazol-2-yl)-1-phenylprop-2-en-1-one (ImAG std) was synthesized by the same aldol condensation method to obtain an estimation of the pKa by measuring the absorbance at different pHs in a Varian UV-visible spectrometer, Model Cary Bio-100 as shown in FIG. 14. For the transition pH measurement, Isothermal measurements at 26.0° C. were performed in a SPECTRAmax 340 microplate reader at 650 nm. […]

[5] = test system: neuroblastoma (SH-SY5Y) cells; experiment: MTT viability assay; format: cell-based, human; settings: 0.2 μM DOX
[6] = ImAGhD2OH, pH 5.0, calculated at 20° C.
[7] = ImAGhD2OH, pH 5.5, calculated at 20° C.
[8] = ImAGhD2OH, pH 6:0, calculated at 20° C.
[9] = ImAGhD2OH, pH 6.5, calculated at 20° C.
[10] = ImAGhD2OH, pH 7.0, calculated at 20° C.
[11] = ImAGpD2OH, pH 5.0, calculated at 20° C.
[12] = ImAGpD2OH, pH 7.0, calculated at 20° C.

Structure (SMILES): Cn1ccnc1/C=C/C(=O)c1cccc(-c2nc3c(=O)[nH]c(N)nc3n2[C@H]2C[C@H](OC(=O)CCCCCn3cc(COC(=O)C(C)(CO)CO)nn3)[C@@H](COC(=O)CCCCCn3cc(COC(=O)C(C)(CO)CO)nn3)O2)c1 [ImAGhD2OH]
- pKa [1]: 5.7
- transition pH ([1]; transmittance at 650 nm, 26° C., at 65% of the transmittance): around 5.7
- ΔTcp ([2]; between hSGQ and oSGQ): ≈ 25 °C
- cloud-point temperature (Tcp) ([2]; oSGQ, pH 6-7, 650 nm): around 4 °C
- cloud-point temperature (Tcp) ([2]; protonated hSGQ, at pHs and 5.5, 650 nm): 29 °C
- ΔHTm ([3]; ImAGhD2OH, pH 5.0): 64.32 kcal/mol
- ΔSTm ([3]; ImAGhD2OH, pH 5.0): 0.884 kcal/mol · ° C.
- ΔSTt ([3]; ImAGhD2OH, pH 5.0): 0.778 kcal/mol · ° C.
- Tt ([3]; ImAGhD2OH, pH 5.0, aqueous solution): 59.3 °C and 59.26 °C
- ΔGT: [3, 6]: 30.67 kcal/mol
- ΔGTm [3, 6]: 46.64 kcal/mol
- Tm ([3]; ImAGhD2OH, pH 5.0, melting of SGQ assembly): 72.7 °C and 72.72 °C
- ΔHTm ([3]; ImAGhD2OH, pH 5.5): 62.58 kcal/mol
- ΔHTt ([3]; ImAGhD2OH, pH 5.5): 146 kcal/mol and 146.0 kcal/mol
- ΔSTm ([3]; ImAGhD2OH, pH 5.5): 0.912 kcal/mol · ° C.
- ΔSTt ([3]; ImAGhD2OH, pH 5.5): 2.704 kcal/mol · ° C.
- Tt ([3]; ImAGhD2OH, pH 5.5, aqueous solution): 54.00 °C
- ΔGT: [3, 7]: 91.92 kcal/mol
- ΔGTm [3, 7]: 44.34 kcal/mol
- Tm ([3]; ImAGhD2OH, pH 5.5, melting of SGQ assembly): 68.64 °C
- ΔHTm ([3]; ImAGhD2OH, pH 6:0): 11.20 kcal/mol
- ΔHTt ([3]; ImAGhD2OH, pH 6:0): 0.123 kcal/mol
- ΔSTm ([3]; ImAGhD2OH, pH 6:0): 0.272 kcal/mol · ° C.
- ΔSTt ([3]; ImAGhD2OH, pH 6:0): 0.0216 kcal/mol · ° C.
- Tt ([3]; ImAGhD2OH, pH 6:0, aqueous solution): 5.702 °C
- ΔGT: [3, 8]: -0.309 kcal/mol
- ΔGTm [3, 8]: 5.76 kcal/mol
- Tm ([3]; ImAGhD2OH, pH 6:0, melting of SGQ assembly): 41.12 °C
- ΔHTm ([3]; ImAGhD2OH, pH 6.5): 11.80 kcal/mol
- ΔHTt ([3]; ImAGhD2OH, pH 6.5): 0.0522 kcal/mol
- ΔSTm ([3]; ImAGhD2OH, pH 6.5): 0.316 kcal/mol · ° C.
- ΔSTt ([3]; ImAGhD2OH, pH 6.5): 0.0106 kcal/mol · ° C.
- Tt ([3]; ImAGhD2OH, pH 6.5, aqueous solution): 4.938 °C
- ΔGT: [3, 9]: -0.160 kcal/mol
- ΔGTm [3, 9]: 5.48 kcal/mol
- Tm ([3]; ImAGhD2OH, pH 6.5, melting of SGQ assembly): 37.32 °C
- ΔHTm ([3]; ImAGhD2OH, pH 7.0): 15.42 kcal/mol
- ΔHTt ([3]; ImAGhD2OH, pH 7.0): 0.078 kcal/mol and 0.0784 kcal/mol
- ΔSTm ([3]; ImAGhD2OH, pH 7.0): 0.362 kcal/mol · ° C.
- ΔSTt ([3]; ImAGhD2OH, pH 7.0): 0.0144 kcal/mol · ° C.
- Tt ([3]; ImAGhD2OH, pH 7.0, aqueous solution): 5.4 °C and 5.449 °C
- ΔGT: [3, 10]: -0.210 kcal/mol
- ΔGTm [3, 10]: 8.18 kcal/mol
- Tm ([3]; ImAGhD2OH, pH 7.0, melting of SGQ assembly): 42.6 °C and 42.64 °C
- ΔTt ([3]; between oSGQ (pH 7) and hSGQ (pH 5)): ≈ 53.9 °C

Structure (SMILES): Cn1ccnc1/C=C/C(=O)c1ccccc1 [ImAG std, (E)-3-(1-methyl-1H-imidazol-2-yl)-1-phenylprop-2-en-1-one]
- pKa [4]: 5.5 to 6

Structure (SMILES): Cn1ccnc1/C=C/C(=O)c1cccc(-c2nc3c(=O)[nH]c(N)nc3n2[C@H]2C[C@H](OC(=O)CCCCn3cc(COC(=O)C(C)(CO)CO)nn3)[C@@H](COC(=O)CCCCn3cc(COC(=O)C(C)(CO)CO)nn3)O2)c1 [ImAGpD2OH]
- pKa [1]: 5.7
- Tcp ([2]; hSGQ at pH 5): 42 °C
- shift of ΔTcp ([2]; hSGQ at pH 5, relative to ImAGhD2OH): 13 °C
- Tcp ([2]; oSGQ at pH 7): 15 °C
- shift of ΔTcp ([2]; oSGQ at pH 7, relative to ImAGhD2OH): 10 °C
- ΔHTm ([3]; ImAGpD2OH, pH 5.0): 57.01 kcal/mol
- ΔHTt ([3]; ImAGpD2OH, pH 5.0): 8.41 kcal/mol
- ΔSTm ([3]; ImAGpD2OH, pH 5.0): 0.808 kcal/mol · ° C.
- ΔSTt ([3]; ImAGpD2OH, pH 5.0): 0.167 kcal/mol · ° C.
- Tt ([3]; ImAGpD2OH, pH 5.0, aqueous solution): 50.5 °C and 50.45 °C
- ΔGT: [3, 11]: 5.07 kcal/mol
- ΔGTm [3, 11]: 40.85 kcal/mol
- Tm ([3]; ImAGpD2OH, pH 5.0, melting of SGQ assembly): 70.52 °C
- ΔHTm ([3]; ImAGpD2OH, pH 7.0): 101.3 kcal/mol
- ΔHTt ([3]; ImAGpD2OH, pH 7.0): 4.36 kcal/mol
- ΔSTm ([3]; ImAGpD2OH, pH 7.0): 1.805 kcal/mol · ° C.
- ΔSTt ([3]; ImAGpD2OH, pH 7.0): 0.505 kcal/mol · ° C.
- Tt ([3]; ImAGpD2OH, pH 7.0, aqueous solution): 8.6 °C and 8.631 °C
- ΔGT: [3, 12]: -5.74 kcal/mol
- ΔGTm [3, 12]: 65.20 kcal/mol
- Tm ([3]; ImAGpD2OH, pH 7.0, melting of SGQ assembly): 56.11 °C

Structure (SMILES): COc1cccc2c1C(=O)c1c(O)c3c(c(O)c1C2=O)C[C@@](O)(C(=O)CO)C[C@@H]3O[C@H]1C[C@H](N)[C@H](O)[C@H](C)O1 [DOX, doxorubicin]
- cytotoxicity (MTT) [5]: cytotoxic
